In assay [1] the target is T1, Serine/threonine-protein kinase 3 (Homo sapiens) (UniProt Q13188).
T1 sequence (whole entry): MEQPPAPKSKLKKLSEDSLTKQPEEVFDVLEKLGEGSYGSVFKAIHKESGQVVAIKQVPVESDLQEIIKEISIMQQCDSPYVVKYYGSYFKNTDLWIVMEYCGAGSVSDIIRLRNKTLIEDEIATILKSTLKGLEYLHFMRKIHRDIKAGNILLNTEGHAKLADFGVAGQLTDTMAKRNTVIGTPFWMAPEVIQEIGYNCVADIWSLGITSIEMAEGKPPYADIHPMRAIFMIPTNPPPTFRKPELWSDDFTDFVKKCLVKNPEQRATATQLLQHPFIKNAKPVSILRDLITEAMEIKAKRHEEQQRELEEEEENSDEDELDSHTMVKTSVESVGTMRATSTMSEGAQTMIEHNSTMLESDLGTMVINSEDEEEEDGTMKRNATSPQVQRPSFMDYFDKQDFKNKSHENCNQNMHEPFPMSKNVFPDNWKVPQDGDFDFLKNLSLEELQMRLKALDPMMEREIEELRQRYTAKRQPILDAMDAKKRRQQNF
Description: Inhibition of MST2 Lys1 labeling site in human A-375 cells at 5 uM by KiNativ Profiling analysis relative to control. The format is cell-based.

Assay [2] deals with Serine/threonine-protein kinase Nek7 (Homo sapiens) (UniProt Q8TDX7). Description: Inhibition of NEK7 Lys2 labeling site in human A-375 cells at 0.5 uM by KiNativ Profiling analysis relative to control. The format is cell-based.
Sequence of Serine/threonine-protein kinase Nek7 (Homo sapiens) (Q8TDX7 whole entry, looked up, the tested form may be a part): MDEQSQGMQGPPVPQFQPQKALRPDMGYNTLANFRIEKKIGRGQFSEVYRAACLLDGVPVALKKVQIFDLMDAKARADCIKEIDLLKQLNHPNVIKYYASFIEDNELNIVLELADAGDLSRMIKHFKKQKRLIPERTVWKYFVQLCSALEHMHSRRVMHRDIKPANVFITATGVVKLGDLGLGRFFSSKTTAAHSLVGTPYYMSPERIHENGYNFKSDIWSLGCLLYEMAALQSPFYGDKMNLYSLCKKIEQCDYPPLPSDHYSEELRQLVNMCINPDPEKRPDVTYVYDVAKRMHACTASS
Assay [3] addresses eIF-2-alpha kinase GCN2 (Homo sapiens) (UniProt Q9P2K8). In words: Inhibition of GCN2 domain2 Lys1 labeling site in human A-375 cells at 5 uM by KiNativ Profiling analysis relative to control. Type of assay: cell-based.
Assay [4] has as its target TRAF2 and NCK-interacting protein kinase (Homo sapiens) (UniProt Q9UKE5). In words: Inhibition of ZC2/TNIK Lys2 labeling site in human A-375 cells at 0.05 uM by KiNativ Profiling analysis relative to control. The format is cell-based.
Assay [5] deals with T2, Serine/threonine-protein kinase Chk1 (Homo sapiens) (UniProt O14757).
T2 sequence (whole entry): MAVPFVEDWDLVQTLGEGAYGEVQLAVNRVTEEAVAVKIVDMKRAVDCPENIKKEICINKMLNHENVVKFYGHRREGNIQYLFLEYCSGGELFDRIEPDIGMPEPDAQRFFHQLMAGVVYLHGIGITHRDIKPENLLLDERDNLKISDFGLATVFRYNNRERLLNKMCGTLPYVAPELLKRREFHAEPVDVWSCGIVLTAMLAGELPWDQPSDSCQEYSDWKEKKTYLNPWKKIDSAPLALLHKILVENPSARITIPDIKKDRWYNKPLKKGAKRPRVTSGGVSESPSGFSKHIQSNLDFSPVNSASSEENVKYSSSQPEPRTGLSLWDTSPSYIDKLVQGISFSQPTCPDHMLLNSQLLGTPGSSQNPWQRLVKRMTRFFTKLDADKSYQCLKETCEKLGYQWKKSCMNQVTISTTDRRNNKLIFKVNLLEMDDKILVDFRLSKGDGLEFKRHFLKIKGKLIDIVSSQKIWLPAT
Description: Inhibition of CHK1 Lys2 labeling site harbouring DIKPENLLLDER in human A-375 cells at 0.05 uM by KiNativ Profiling analysis relative to control. The format is cell-based.

The target in assay [6] is Tyrosine-protein kinase ABL1 (Homo sapiens, UniProt P00519). Description: Inhibition of ABL (unknown origin) ACT labeling site by KiNativ Profiling analysis.
Sequence of Tyrosine-protein kinase ABL1 (P00519 whole entry): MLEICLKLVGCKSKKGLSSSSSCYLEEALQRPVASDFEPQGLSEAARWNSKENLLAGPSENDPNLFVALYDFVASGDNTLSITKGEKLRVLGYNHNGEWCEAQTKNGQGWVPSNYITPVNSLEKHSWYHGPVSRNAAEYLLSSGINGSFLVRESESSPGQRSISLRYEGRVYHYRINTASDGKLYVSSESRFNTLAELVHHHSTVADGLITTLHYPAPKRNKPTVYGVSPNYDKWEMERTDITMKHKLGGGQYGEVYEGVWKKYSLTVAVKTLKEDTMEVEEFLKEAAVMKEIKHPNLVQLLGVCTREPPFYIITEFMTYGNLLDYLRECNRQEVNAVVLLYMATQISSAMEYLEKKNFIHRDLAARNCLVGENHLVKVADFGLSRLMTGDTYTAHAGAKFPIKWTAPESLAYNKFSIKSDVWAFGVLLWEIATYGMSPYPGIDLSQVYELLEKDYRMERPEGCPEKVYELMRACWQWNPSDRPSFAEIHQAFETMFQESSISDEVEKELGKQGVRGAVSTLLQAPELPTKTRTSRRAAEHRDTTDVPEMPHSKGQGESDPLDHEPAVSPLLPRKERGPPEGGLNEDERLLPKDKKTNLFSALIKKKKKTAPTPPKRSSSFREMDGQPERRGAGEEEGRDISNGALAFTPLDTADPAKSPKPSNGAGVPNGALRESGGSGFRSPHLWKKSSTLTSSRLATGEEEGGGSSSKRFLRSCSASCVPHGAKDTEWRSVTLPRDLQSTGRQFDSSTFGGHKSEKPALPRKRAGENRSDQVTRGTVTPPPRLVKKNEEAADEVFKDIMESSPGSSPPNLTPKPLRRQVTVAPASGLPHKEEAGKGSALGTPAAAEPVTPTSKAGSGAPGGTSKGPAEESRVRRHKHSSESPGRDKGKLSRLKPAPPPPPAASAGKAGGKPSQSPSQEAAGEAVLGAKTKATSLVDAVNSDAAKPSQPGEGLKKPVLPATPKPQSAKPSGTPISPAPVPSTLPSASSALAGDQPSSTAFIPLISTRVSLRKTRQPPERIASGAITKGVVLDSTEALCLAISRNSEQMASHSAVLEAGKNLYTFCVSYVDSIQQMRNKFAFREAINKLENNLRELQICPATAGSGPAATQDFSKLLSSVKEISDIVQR
In assay [7] the target is Serine/threonine-protein kinase 38-like (Homo sapiens) (UniProt Q9Y2H1). Description: Inhibition of NDR2 Lys2 labeling site in human A-375 cells at 0.05 uM by KiNativ Profiling analysis relative to control. Type of assay: cell-based.
Sequence of Serine/threonine-protein kinase 38-like (Homo sapiens) (Q9Y2H1 2-464 limits assumed): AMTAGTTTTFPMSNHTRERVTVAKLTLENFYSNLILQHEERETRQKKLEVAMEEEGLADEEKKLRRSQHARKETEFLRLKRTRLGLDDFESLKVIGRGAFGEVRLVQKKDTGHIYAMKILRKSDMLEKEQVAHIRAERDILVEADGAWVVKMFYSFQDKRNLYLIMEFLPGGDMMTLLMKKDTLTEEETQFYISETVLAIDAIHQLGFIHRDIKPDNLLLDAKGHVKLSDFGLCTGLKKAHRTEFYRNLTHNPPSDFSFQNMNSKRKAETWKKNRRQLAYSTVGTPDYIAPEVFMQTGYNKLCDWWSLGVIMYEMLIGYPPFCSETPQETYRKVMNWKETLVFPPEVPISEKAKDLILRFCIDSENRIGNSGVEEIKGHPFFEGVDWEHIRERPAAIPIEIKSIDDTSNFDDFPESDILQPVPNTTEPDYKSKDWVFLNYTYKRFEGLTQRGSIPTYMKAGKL
Assay [8] concerns the target T3, Mitogen-activated protein kinase kinase kinase 2 (Homo sapiens) (UniProt Q9Y2U5).
T3 sequence (whole entry): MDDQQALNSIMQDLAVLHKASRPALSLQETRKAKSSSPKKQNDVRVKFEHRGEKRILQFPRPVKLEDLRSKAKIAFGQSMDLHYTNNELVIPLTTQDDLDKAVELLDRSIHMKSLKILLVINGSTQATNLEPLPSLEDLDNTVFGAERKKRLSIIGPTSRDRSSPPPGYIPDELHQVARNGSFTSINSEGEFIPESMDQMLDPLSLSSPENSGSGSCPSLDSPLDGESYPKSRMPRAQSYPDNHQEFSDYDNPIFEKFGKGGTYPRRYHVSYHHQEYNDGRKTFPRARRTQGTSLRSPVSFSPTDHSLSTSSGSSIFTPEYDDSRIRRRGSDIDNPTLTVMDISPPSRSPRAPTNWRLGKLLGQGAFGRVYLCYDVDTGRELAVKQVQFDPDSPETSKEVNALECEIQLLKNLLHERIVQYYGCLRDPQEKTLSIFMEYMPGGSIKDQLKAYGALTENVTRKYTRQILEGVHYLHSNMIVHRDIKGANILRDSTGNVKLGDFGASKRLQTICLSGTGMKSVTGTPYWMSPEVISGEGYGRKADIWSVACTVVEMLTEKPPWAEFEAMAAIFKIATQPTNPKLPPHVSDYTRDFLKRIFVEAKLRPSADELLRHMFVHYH
Description: Inhibition of MAP3K2 Lys1 labeling site harbouring VYLCYDVDTGRELAVKQVQFDPDSPETSKEVNALECEIQLLK in human A-375 cells at 0.05 uM by KiNativ Profiling analysis relative to control. Type of assay: cell-based.

Assay [9] addresses Cyclin-dependent kinase 11B (Homo sapiens) (UniProt P21127). Description: Inhibition of PITSLRE Lys2 labeling site in human A-375 cells at 5 uM by KiNativ Profiling analysis relative to control. The format is cell-based.

Structures are written as SMILES.

The results in this text go back to ChEMBL document CHEMBL5696442, “Discovery of type II inhibitors of TGFβ-activated kinase 1 (TAK1) and mitogen-activated protein kinase kinase kinase kinase 2 (MAP4K2)” (J Med Chem, 2015).

Sequence of eIF-2-alpha kinase GCN2 (Homo sapiens) (Q9P2K8 whole entry, the tested form may be a part): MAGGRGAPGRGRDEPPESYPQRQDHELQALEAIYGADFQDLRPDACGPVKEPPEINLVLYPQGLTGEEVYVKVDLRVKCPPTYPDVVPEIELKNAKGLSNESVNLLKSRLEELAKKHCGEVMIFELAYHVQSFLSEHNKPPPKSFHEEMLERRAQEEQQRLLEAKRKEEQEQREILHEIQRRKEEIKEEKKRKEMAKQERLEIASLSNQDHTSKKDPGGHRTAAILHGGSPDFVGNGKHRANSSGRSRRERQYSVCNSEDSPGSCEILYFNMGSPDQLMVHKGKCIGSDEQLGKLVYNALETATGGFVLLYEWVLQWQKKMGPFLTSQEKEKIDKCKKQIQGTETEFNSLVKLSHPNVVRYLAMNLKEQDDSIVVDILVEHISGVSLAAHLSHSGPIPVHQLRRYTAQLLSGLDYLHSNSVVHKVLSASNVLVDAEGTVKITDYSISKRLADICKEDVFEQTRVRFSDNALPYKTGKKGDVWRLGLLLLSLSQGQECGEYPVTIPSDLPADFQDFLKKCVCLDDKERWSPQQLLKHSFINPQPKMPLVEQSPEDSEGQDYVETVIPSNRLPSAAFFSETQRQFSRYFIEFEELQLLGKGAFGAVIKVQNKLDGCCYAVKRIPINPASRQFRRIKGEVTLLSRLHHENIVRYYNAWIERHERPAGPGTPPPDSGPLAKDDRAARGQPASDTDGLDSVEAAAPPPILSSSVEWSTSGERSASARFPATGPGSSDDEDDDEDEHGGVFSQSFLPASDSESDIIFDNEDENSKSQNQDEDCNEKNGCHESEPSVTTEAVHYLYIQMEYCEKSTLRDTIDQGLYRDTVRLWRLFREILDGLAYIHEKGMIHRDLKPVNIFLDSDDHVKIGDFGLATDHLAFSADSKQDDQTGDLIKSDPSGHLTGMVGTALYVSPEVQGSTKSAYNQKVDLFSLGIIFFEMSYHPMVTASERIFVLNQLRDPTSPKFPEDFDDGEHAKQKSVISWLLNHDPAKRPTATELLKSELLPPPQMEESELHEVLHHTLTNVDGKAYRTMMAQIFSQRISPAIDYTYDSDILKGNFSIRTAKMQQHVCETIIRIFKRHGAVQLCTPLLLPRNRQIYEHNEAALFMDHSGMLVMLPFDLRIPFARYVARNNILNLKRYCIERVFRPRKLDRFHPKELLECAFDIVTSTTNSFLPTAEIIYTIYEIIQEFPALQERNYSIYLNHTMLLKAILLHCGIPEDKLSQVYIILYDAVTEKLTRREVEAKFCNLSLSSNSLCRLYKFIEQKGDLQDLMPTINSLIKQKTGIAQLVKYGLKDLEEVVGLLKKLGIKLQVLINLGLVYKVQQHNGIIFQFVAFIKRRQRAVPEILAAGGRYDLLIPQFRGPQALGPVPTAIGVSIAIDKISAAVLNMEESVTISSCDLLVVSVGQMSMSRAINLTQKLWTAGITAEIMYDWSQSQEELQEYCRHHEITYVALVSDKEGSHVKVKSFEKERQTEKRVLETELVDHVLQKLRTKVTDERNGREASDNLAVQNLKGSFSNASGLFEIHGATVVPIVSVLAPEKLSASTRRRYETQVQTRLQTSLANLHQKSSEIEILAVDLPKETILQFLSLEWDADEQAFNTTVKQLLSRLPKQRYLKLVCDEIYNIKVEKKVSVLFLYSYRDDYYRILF
Sequence of Cyclin-dependent kinase 11B (Homo sapiens) (P21127 whole entry): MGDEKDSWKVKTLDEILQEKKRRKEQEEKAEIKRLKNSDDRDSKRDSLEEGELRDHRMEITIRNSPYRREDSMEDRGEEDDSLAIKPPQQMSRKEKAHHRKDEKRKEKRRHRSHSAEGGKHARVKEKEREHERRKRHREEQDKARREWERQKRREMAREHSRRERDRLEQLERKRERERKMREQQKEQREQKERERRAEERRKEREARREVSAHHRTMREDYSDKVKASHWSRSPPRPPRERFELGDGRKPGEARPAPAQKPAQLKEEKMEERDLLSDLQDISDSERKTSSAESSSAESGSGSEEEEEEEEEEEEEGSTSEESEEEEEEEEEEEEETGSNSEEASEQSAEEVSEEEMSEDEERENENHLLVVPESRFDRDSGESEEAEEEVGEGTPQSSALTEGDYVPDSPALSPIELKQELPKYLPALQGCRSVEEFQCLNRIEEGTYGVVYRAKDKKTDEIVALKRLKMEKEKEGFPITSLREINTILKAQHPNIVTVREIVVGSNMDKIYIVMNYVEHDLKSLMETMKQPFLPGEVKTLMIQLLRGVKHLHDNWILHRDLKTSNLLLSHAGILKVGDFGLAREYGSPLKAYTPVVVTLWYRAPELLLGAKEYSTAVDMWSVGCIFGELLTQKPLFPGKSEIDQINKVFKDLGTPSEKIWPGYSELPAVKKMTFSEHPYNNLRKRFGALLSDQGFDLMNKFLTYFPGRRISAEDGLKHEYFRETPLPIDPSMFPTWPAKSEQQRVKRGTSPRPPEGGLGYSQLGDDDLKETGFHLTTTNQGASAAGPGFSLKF

As to `CCN1CCN(Cc2ccc(NC(=O)c3ccc(C)c(/C=C/c4cnc5[nH]ccc5c4OC)c3)cc2C(F)(F)F)CC1`, the inhibition (usually the change of the read-out against control, counted positive when it falls) was determined as 25% in [1]; 10.7% in assay [2]; 81.1% in [3]; 19.5% in assay [4]; 8.3% in assay [5]; 11.6% in assay [7]. Moreover, the results for the inhibition in assay [8] and in assay [9] were 1.5% and -9.5%, respectively. In assay [6], it took 51.5 nM to reach half-maximal inhibition (IC50).
As to `CCN1CCN(Cc2ccc(NC(=O)c3ccc(C)c(Oc4ccnc5[nH]ccc45)c3)cc2C(F)(F)F)CC1`, the inhibition in assay [1] was determined as 13.7%; in assay [2], 7.8%; in assay [3], 37.6%; in assay [4], 32.6%; in [5], 49.4%; in assay [7] it was 14.8%. Further, the inhibition in [8] is -3.7%; in assay [9] it was 6.3%. Moreover, in assay [6], the IC50 (in general, the point on the concentration scale where inhibition reaches its midpoint) was 75.2 nM.
